Measurements taken from ChEMBL document CHEMBL4417631, “Oral peptide inhibitors of interleukin-23 receptor and their use to treat inflammatory bowel diseases” (2017).
pIC50: −log10 of the molar value. The source made the active and inactive calls. The rule behind the calls is not given here. Where a SMILES comes first, the peptide text is derived from it.

How the values were obtained:
Rattus norvegicus [1] = assay: Anti-colitis activity in Sprague-Dawley rat model of DSS-induced colitis assessed as improvement in hematocrit scores level at 30 mg/kg, ip dosed 3 times per day; assay type: functional, organism-based
PBMC = assay: Inhibition of IL12-stimulated IFNgamma production in PHA-activated human PBMC at 0.0001 to 100 uM by ELISA; assay type: functional, cell-based
Rattus norvegicus [2] = assay: Anti-colitis activity in Sprague-Dawley rat model of DSS-induced colitis assessed as improvement in stool consistency scores level at 30 mg/kg, po dosed 3 times per day; assay type: functional, organism-based
Rattus norvegicus [3] = assay: Anti-colitis activity in Sprague-Dawley rat model of DSS-induced colitis assessed as improvement in stool consistency scores level at 30 mg/kg, ip dosed 3 times per day; assay type: functional, organism-based
Rattus norvegicus [4] = assay: Anti-colitis activity in Sprague-Dawley rat model of DSS-induced colitis assessed as reduction in colon macroscopic scores at 30 mg/kg, po dosed 3 times per day; assay type: functional, organism-based
Rattus norvegicus [5] = assay: Anti-colitis activity in Sprague-Dawley rat model of DSS-induced colitis assessed as change in body weight at 30 mg/kg, po dosed 3 times per day (-6.39 +/- 1.11%); assay type: functional
Rattus norvegicus [6] = assay: Anti-colitis activity in Sprague-Dawley rat model of DSS-induced colitis assessed as reduction in colon macroscopic scores at 30 mg/kg, ip dosed 3 times per day; assay type: functional, organism-based
Rattus norvegicus [7] = assay: Anti-colitis activity in Sprague-Dawley rat model of DSS-induced colitis assessed as colon weight/colon length ratio at 30 mg/kg, po dosed 3 times per day (124.36 +/- 17.11 g/cm); assay type: functional
Rattus norvegicus [8] = assay: Anti-colitis activity in Sprague-Dawley rat model of DSS-induced colitis assessed as improvement in hematocrit scores level at 30 mg/kg, po dosed 3 times per day; assay type: functional, organism-based
Rattus norvegicus [9] = assay: Anti-colitis activity in Sprague-Dawley rat model of DSS-induced colitis assessed as reduction in disease activity index at 30 mg/kg, po dosed 3 times per day; assay type: functional
Interleukin-23 receptor [10] = target: T1, Interleukin-23 receptor (Mus musculus, UniProt Q8K4B4); assay: Inhibition of interleukin-23 binding to mouse interleukin-23 receptor incubated for 2 hrs by competitive binding ELISA
T1 sequence (Q8K4B4 whole entry): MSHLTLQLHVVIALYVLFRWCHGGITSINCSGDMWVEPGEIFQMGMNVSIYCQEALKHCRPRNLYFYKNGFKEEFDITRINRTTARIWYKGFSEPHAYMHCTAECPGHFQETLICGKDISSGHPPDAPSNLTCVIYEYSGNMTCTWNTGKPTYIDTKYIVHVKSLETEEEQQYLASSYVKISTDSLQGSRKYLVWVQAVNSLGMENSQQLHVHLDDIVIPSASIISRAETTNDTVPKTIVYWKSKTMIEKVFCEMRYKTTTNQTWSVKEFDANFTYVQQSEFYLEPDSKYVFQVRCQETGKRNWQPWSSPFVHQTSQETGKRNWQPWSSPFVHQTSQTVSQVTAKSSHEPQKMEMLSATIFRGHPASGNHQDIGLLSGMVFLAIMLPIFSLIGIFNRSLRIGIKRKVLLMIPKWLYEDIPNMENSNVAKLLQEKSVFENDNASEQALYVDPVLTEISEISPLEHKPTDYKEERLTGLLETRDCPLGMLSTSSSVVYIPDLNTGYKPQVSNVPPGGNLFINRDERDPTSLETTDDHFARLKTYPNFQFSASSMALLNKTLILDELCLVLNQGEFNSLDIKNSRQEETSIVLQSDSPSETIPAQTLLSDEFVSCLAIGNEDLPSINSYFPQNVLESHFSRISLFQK

Interleukin-23 receptor [11] = target: T2, Interleukin-23 receptor (Homo sapiens, UniProt Q5VWK5); assay: Inhibition of interleukin-23 binding to human interleukin-23 receptor incubated for 2 hrs by competitive binding ELISA
T2 sequence (Q5VWK5 whole entry): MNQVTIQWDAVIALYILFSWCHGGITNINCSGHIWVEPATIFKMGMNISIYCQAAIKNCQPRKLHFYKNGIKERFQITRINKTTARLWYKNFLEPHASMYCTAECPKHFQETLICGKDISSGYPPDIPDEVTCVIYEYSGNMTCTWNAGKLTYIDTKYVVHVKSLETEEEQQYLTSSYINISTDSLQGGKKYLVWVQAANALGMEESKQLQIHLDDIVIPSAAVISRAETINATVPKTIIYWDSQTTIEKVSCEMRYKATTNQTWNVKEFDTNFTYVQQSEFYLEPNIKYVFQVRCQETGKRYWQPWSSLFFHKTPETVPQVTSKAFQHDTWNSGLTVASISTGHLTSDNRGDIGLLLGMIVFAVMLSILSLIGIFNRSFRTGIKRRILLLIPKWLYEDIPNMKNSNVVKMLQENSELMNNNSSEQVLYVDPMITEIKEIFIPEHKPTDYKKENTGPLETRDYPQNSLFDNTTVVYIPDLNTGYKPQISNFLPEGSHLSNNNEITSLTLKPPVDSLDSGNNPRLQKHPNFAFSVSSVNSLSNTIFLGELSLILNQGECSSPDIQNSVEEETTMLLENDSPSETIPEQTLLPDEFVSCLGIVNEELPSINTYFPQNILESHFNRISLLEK

[12] = Inhibition of interleukin-23 binding to rat interleukin-23 receptor incubated for 2 hrs by competitive binding ELISA
[13] = Inhibition of interleukin-23 binding to cynomolgus monkey interleukin-23 receptor incubated for 2 hrs by competitive binding ELISA; design: species or system Macaca fascicularis
Interleukin-23 receptor [14] = target: T2, Interleukin-23 receptor; assay: Inhibition of interleukin-23 receptor in human DB cells assessed as reduction in IL-23-stimulated STAT3 phosphorylation incubated for 30 mins by HTRF assay; assay type: cell-based

| pIC50 (Interleukin-23 receptor [10]) | pIC50 (Interleukin-23 receptor [11]) | pIC50 [12] | pIC50 [13] | pIC50 (Interleukin-23 receptor [14]) | Structure (SMILES) | Activity (Rattus norvegicus [1]) | inhibition (PBMC) | Activity (Rattus norvegicus [2]) | Activity (Rattus norvegicus [3]) | Activity (Rattus norvegicus [4]) | Activity (Rattus norvegicus [5]) [%] | Activity (Rattus norvegicus [6]) | Ratio (Rattus norvegicus [7]) [g/cm] | Activity (Rattus norvegicus [8]) | Activity_index (Rattus norvegicus [9]) |
| --- | --- | --- | --- | --- | --- | --- | --- | --- | --- | --- | --- | --- | --- | --- | --- |
| – | – | – | – | – | COc1ccc(C[C@H](NC(=O)[C@H]2NC(=O)[C@H](CCC(N)=O)NC(=O)[C@H](Cc3c[nH]c4ccccc34)NC(=O)[C@H]([C@@H](C)O)NC(=O)[C@H](CCC(N)=O)NC(=O)[C@@H](NC(C)=O)C(C)(C)SSC2(C)C)C(=O)N[C@@H](Cc2ccc3ccccc3c2)C(=O)N[C@@](C)(CCCCN)C(=O)N[C@@H](CCC(=O)O)C(=O)N[C@@H](CC(N)=O)C(=O)NCC(N)=O)cc1 | Active | inactive | Active | Active | Active | 0.13 | Active | 97.36 | Active | 0.61 |
| < 4.60 | 6.00 to 6.60 | 6.00 to 6.60 | – | – | N=C(N)NCCC[C@H](NC(=O)[C@@H](N)CS)C(=O)N[C@@H](CC(=O)O)C(=O)N[C@@H](Cc1c[nH]c2ccccc12)C(=O)N[C@@H](CCC(N)=O)C(=O)N[C@@H](CS)C(=O)N[C@@H](Cc1ccc(O)cc1)C(=O)N[C@@H](Cc1c[nH]c2ccccc12)C(=O)N[C@@H](Cc1cnc[nH]1)C(=O)N[C@@H](CCCCN)C(=O)N[C@@H](Cc1ccccc1)C(=O)NCC(N)=O (H-CRDWQCYWHKFG-NH2) | – | – | – | – | – | – | – | – | – | – |
| < 4.60 | 6.00 to 7.00 | 6.00 to 6.60 | 5.00 to 6.00 | 6.00 to 7.00 | CC(C)[C@H](NC(=O)[C@H](Cc1c[nH]c2ccccc12)NC(=O)[C@H](CC(=O)O)NC(=O)[C@H](C)NC(=O)[C@@H](N)CS)C(=O)N[C@@H](CS)C(=O)N[C@@H](Cc1ccc(O)cc1)C(=O)N[C@@H](Cc1c[nH]c2ccccc12)C(=O)N[C@@H](Cc1cnc[nH]1)C(=O)N[C@H](C(=O)N[C@@H](Cc1ccccc1)C(=O)NCC(N)=O)[C@@H](C)O | – | – | – | – | – | – | – | – | – | – |
